Source: patent US20260373266A1, “PROTEIN DEGRADERS AND USES THEREOF” (KYMERA THERAPEUTICS, INC., priority 2022, published 2026)

Target: T1, DCAF1 WD40 domain (residues 1077-1390) (Homo sapiens, UniProt Q9Y4B6)
T1 construct: DCAF1 WD40 domain (residues 1077-1390)
Assay: DCAF1 binding assay by SPR (Biacore 8K+), DCAF1-3 KD
Conditions: 25 °C, read-out: DCAF1-3 SPR (KD)

T1 sequence (Q9Y4B6 1077-1390): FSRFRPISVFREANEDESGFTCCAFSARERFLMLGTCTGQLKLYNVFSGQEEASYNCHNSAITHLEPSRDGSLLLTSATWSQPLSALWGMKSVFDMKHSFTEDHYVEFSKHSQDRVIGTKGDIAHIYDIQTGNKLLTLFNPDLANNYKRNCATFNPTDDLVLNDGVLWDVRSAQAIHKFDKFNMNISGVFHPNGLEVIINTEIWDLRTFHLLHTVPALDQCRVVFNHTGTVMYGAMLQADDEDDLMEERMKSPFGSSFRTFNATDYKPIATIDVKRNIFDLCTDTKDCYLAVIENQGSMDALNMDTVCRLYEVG

SMILES	Kd [µM]
NCCc1cccc(N2CCC[C@@H](Nc3cc(N4CCOCC4)ccn3)C2)c1 [I-865]	> 200
NC(=O)C[C@@]1(NC(=O)c2c[nH]nc2-c2ccccc2F)CCCc2cc(Cl)ccc21 [I-241]	> 200
Cc1cc(F)c(-c2[nH]ncc2C(=O)N[C@@H](CC(N)=O)c2cccc(Cl)c2)c(F)c1 [I-549]	< 10
NC(=O)C[C@H](NC(=O)c1c[nH]nc1-c1ccccc1O)c1cccc(Cl)c1 [I-229]	> 200
NCCOCCOCCOCCOCCOCC(=O)c1[nH]cc(C(=O)N[C@@H](CC(N)=O)c2cccc(Cl)c2)c1-c1ccccc1F [I-675]	< 10
NC(=O)C[C@H](NC(=O)c1cn[nH]c1-c1ccccc1F)c1cccc(C(N)=O)c1 [I-353]	> 200
O[C@@H]1CC[C@@H](Nc2cc(N3CCCCC3)ccn2)C[C@H]1c1ccccc1 [I-985]	10 to 100
NC(=O)C[C@](CC(=O)O)(NC(=O)c1c[nH]nc1-c1ccccc1F)c1cccc(Cl)c1 [I-295]	> 200
Cc1sc2c(c1C)C(c1ccc(Cl)cc1)=N[C@@H](CC(=O)NCCOCCOCCOCCOCCCc1ccc(C(=O)c3[nH]cc(C(=O)N[C@@H](CC(=O)N4CCNCC4)c4cccc(Cl)c4)c3-c3c(F)ccc(F)c3C)cc1)c1nnc(C)n1-2 [I-913]	< 10
Clc1nc2c(c(N3CCC[C@@H](Nc4cc(N5CCOCC5)ccn4)C3)n1)CCNC2 [I-681]	10 to 100
NC(=O)C[C@H](NC(=O)c1ccc(C#Cc2ccccc2)cc1)c1cccc(Cl)c1 [I-438]	> 200
Cc1ccc(CCCOCCOCCOCCOCCOCCN)c(F)c1-c1c(C(=O)N[C@@H](CC(N)=O)c2cccc(Cl)c2)c[nH]c1C#N [I-978]	< 10
NC(=O)C[C@H](NC(=O)c1nc(N)[nH]c1-c1ccccc1F)c1cccc(Cl)c1 [I-220]	> 200
NC(=O)C[C@H](NC(=O)c1cn[nH]c1-c1ccccc1F)c1ccncc1 [I-341]	> 200
NC(=O)C[C@H](NC(=O)C1=C(c2c(F)cccc2F)CN(Cc2ccccc2)C1)c1cccc(Cl)c1 [I-587]	10 to 100
OCCN(c1nc(N2CCOCC2)c[nH]1)[C@H]1CCCN(c2cccc(F)c2)C1 [I-372]	> 200
Cc1ccc(N2CCC[C@@H](Nc3cc(N4CCOCC4)ccn3)C2)cc1 [I-509]	10 to 100
COc1ccc(-c2ccncc2)cc1N1CCC[C@@H](Nc2cc(N3CCOCC3)ccn2)C1 [I-698]	10 to 100
NC(=O)C[C@H](NC(=O)c1cn[nH]c1[C@@H]1CCCCO1)c1cccc(Cl)c1 [I-347]	> 200
c1ccc2c(N3CCC[C@@H](Nc4cc(N5CCOCC5)ccn4)C3)noc2c1 [I-73]	100 to 200
c1cc2cc(N3CCC[C@@H](Nc4nccc(N5CCOCC5)n4)C3)ccc2cn1 [I-33]	> 200
NC(=O)C[C@H](NC(=O)c1cn(CC2CC2)nc1-c1ccccc1F)c1cccc(Cl)c1 [I-137]	10 to 100
NC(=O)C[C@H](NC(=O)CCc1nc2c(F)cccc2[nH]1)c1cccc(Cl)c1 [I-441]	> 200
c1cc2ccc(N3CCC[C@@H](Nc4cncc(N5CCOCC5)c4)C3)cc2cn1 [I-366]	< 10
NC(=O)Cc1cccc(N2CCC[C@@H](Nc3cc(N4CCOCC4)ccn3)C2)c1 [I-776]	> 200

SMILES	Kd [µM]
c1ccc2c(N3CCC[C@@H](Nc4cc(N5CCOCC5)ncn4)C3)nccc2c1 [I-390]	> 200
NC(=O)C[C@H](NC(=O)c1c(-c2ccccc2F)cc[nH]c1=O)c1cccc(Cl)c1 [I-216]	> 200
Cc1c(F)ccc(F)c1-c1c(C(=O)N[C@@H](CC(N)=O)c2cccc(Cl)c2)c[nH]c1C(=O)c1cccc(C(C)C)c1 [I-739]	< 10
c1cnc2cc(N3CCC[C@@H](Nc4cc(N5CCOCC5)ncn4)C3)ccc2c1 [I-403]	> 200
Cc1sc2c(c1C)C(c1ccc(Cl)cc1)=N[C@@H](CC(=O)NCCOCCOCCOCCOCCOCCOCCOCCn1cc(C(=O)N[C@@H](CC(N)=O)c3cccc(Cl)c3)c(-c3ccccc3F)n1)c1nnc(C)n1-2 [I-888]	> 200
Cc1cc(N2CCC[C@@H](Nc3cc(N4CCOCC4)ccn3)C2)cnc1OC(C)C [I-428]	> 200
C=CC(=O)NCc1n[nH]cc1C(=O)N[C@@H](CC(N)=O)c1cccc(Cl)c1 [I-467]	> 200
COCCn1cc(C(=O)N[C@@H](CC(N)=O)c2cccc(Cl)c2)c(-c2ccccc2F)n1 [I-120]	10 to 100
COCCc1[nH]cc(C(=O)N[C@@H](CC(N)=O)c2cccc(Cl)c2)c1-c1ccccc1F [I-362]	> 200
c1ccc2nc(N3CCC[C@@H](Nc4cc(N5CCOCC5)ncn4)C3)ccc2c1 [I-397]	> 200
C[C@H](NC(=O)c1c[nH]nc1-c1ccccc1F)c1cccc(Cl)c1 [I-106]	10 to 100
C=CC(=O)n1ccc(-c2n[nH]cc2C(=O)N[C@@H](CC(N)=O)c2cccc(Cl)c2)n1 [I-468]	> 200
Cc1c(F)ccc(F)c1-c1c(C(=O)N[C@@H](CC(N)=O)c2cccc(Cl)c2)cn(C(C)C)c1C#N [I-976]	< 10
c1cc(N2CCCCC2)cc(N[C@@H]2CCC[C@@H](C3CCCCC3)C2)n1 [I-752]	10 to 100
COCCOCC(=O)c1[nH]cc(C(=O)N[C@@H](CC(N)=O)c2cccc(Cl)c2)c1-c1ccccc1F [I-556]	< 10
c1cnc2c(N3CCC[C@@H](Nc4cc(N5CCOCC5)ccn4)C3)nccc2c1 [I-64]	100 to 200
c1cc2ccc(N3CCC[C@@H](Nc4nccc(N5CCOCC5)n4)C3)cc2cn1 [I-57]	10 to 100
NC(=O)C[C@@]1(NC(=O)c2c[nH]nc2-c2ccccc2F)CCCc2c(Cl)cccc21 [I-155]	> 200
Cc1c(F)ccc(F)c1-c1[nH]ncc1C(=O)N[C@@H](CC(=O)N1CCC(O)C1)c1cccc(Cl)c1 (stereo partly drawn) [I-883]	< 10
OC1(c2ccccc2)CCC[C@@H](Nc2cc(N3CCCCC3)ccn2)C1 (stereo partly drawn) [I-925]	100 to 200
NC(=O)C[C@H](NC(=O)c1cn[nH]c1-c1ccccc1F)c1ccc(Cl)cc1 [I-97]	< 10
c1cc(N2CCC[C@@H](Nc3nccc(N4CCOCC4)n3)C2)c2ccncc2c1 [I-55]	100 to 200
NC(=O)C[C@H](NC(=O)c1c[nH]nc1-c1cc(F)ccc1F)c1cccc(Cl)c1 [I-513]	< 10
COc1ccc(F)c(-c2[nH]ncc2C(=O)N[C@@H](CC(N)=O)c2cccc(Cl)c2)c1 [I-249]	> 200

Other lines, results leading:

Kd [µM]	SMILES
< 10	C=CC(=O)NC1CC2(CCN(c3ccnc(N[C@@H]4CCCN(c5cccc(F)c5)C4)c3)CC2)C1 [I-652]
10 to 100	Fc1cccc(N2CCC[C@@H](Nc3cc(N4CC5(CCC5)C4)ccn3)C2)c1 [I-577]
< 10	C[C@@H]1CC[C@H](O)CN1c1ccnc(N2CC[C@@H]3[C@H]2CCCN3c2cccc(F)c2)c1 [I-824]
> 200	Fc1cccc(N2CCC[C@@H](N3CCCc4c(N5CCOCC5)ccnc43)C2)c1 [I-197]
< 10	NC(=O)[C@@H]1C[C@@H](Nc2cc(N3CCCCC3)ccn2)CN(c2cccc(F)c2)C1 [I-1033]
> 200	Fc1cccc(N2CCC[C@@H](N(CCC(F)F)c3cc(N4CCOCC4)ccn3)C2)c1 [I-290]
> 200	Fc1cccc(N2CCC[C@@H](Cc3cc(N4CCOCC4)ccn3)C2)c1 [I-87]
10 to 100	NCCNC(=O)c1ccc(N2CCCCC2)cc1N[C@@H]1CCCN(c2cccc(F)c2)C1 [I-991]
< 10	NC(=O)Cc1cccc(N2CCC[C@H]3[C@@H]2CCN3c2cc(N3CCCCC3)ccn2)c1 [I-942]
> 200	Fc1cccc(N2CCC[C@H]3[C@@H]2CCN3c2cc(N3CC4CC(C4)C3)ccn2)c1 [I-624]
> 200	Fc1cccc(N2CC[C@@H](Nc3cc(N4CCOCC4)ncn3)C2)c1 [I-217]
> 200	C=CC(=O)NC1CCN(c2ccnc(N[C@@H]3CCCN(c4cccc(F)c4)C3)c2)CC1 [I-451]
100 to 200	OC[C@@H]1CCN(c2cccc(F)c2)C[C@@H]1Nc1cc(N2CCCCC2)ccn1 [I-988]
10 to 100	CC(=O)Nc1ccc(N2CCC[C@@H]3[C@H]2CCN3c2cc(N3CCCCC3)ccn2)cc1F [I-746]
10 to 100	Fc1cccc(N2CCC[C@@H](Nc3cc(N4CCCC5(CC5)C4)ccn3)C2)c1 [I-573]
10 to 100	CCCCCCC[C@H]1CCCN(c2ccnc(N3CC[C@H]4[C@@H]3CCCN4c3cccc(F)c3)c2)C1 [I-729]
< 10	Fc1cccc(N2CCC[C@@H](Nc3cc(N4CCCCCC4)ccn3)C2)c1 [I-597]
> 200	CC(c1cc(N2CCOCC2)ccn1)(C1CCCN(c2cccc(F)c2)C1)C(F)(F)F (stereo not drawn) [I-263]

Kd [µM]	SMILES
> 200	Fc1cccc(N2CCC[C@@H](Nc3cc(N4CCOCC4)ccn3)C23COC3)c1 [I-280]
> 200	Fc1cccc(N2CCCC(n3cnc4nccc(N5CCOCC5)c43)C2)c1 (stereo not drawn) [I-324]
10 to 100	OC[C@@H]1CC[C@@H](Nc2cc(N3CCCCC3)ccn2)CN1c1cccc(F)c1 [I-995]
10 to 100	C=CC(=O)NCCOCC1CCN(c2ccnc(N[C@@H]3CCCN(c4cccc(F)c4)C3)c2)CC1 [I-803]
> 200	Fc1cccc(N2CCC[C@@H](N(CC(F)F)c3cc(N4CCOCC4)ccn3)C2)c1 [I-257]
10 to 100	NCC1CC[C@@H](Nc2cc(N3CCCCC3)ccn2)CN1c1cccc(F)c1 (stereo partly drawn) [I-1019]
10 to 100	OCc1c(CN2CCCCC2)cccc1C1CCCN(c2cccc(F)c2)C1 (stereo not drawn) [I-981]
< 10	Fc1cccc(N2CCC[C@@H](Nc3cc(N4CC5CCCC5C4)ccn3)C2)c1 (stereo partly drawn) [I-575]
10 to 100	NC(=O)[C@H]1C[C@@H](Nc2cc(N3CCCCC3)ccn2)CN(c2cccc(F)c2)C1 [I-1032]
10 to 100	C=CC(=O)NCC1CCN(c2ccnc(N3CC[C@@H]4[C@H]3CCCN4c3cccc(F)c3)c2)CC1 [I-665]
> 200	COc1ccc(N2CCOCC2)cc1N[C@@H]1CCCN(c2cccc(F)c2)C1 [I-121]
> 200	C=CC(=O)N1CCC[C@H](N(C)c2ccnc(N[C@@H]3CCCN(c4cccc(F)c4)C3)c2)C1 [I-481]
10 to 100	O=C(O)C1C(Nc2cc(N3CCOCC3)ccn2)CCCN1c1cccc(F)c1 (stereo not drawn) [I-628]
10 to 100	COCCN1CCN(c2ccnc(NC3CCCN(c4cccc(F)c4)C3)n2)CC1 (stereo not drawn) [I-28]
10 to 100	NCCNc1ccc(C2CCCCC2)cc1N[C@@H]1CCCN(c2cccc(F)c2)C1 [I-979]
> 200	Fc1cccc(N2CCC[C@@H](Nc3cc(C4CCCCC4)ccn3)C2)c1 [I-91]
> 200	Fc1cccc(N2CCC[C@@H](N(c3ccncc3)c3cc(N4CCOCC4)ccn3)C2)c1 [I-307]
